Results taken from US20240307388A1, “FORMULATIONS FOR SUBSTITUTED 3-PYRROLIDINES, COMPOSITIONS CONTAINING, AND USES OF SAME” (LIPIDIO PHARMACEUTICALS, INC., priority 2016, published 2024).

Legend:
[1] = Cytotoxicity in mouse melanoma cells (CellTiter-Glo); type: cell-based; conditions: mouse, B16F10 mouse melanoma cells; B16F10, 48 h, representative experiment
Experimental: (§1) Mouse melanoma cells (B16F10) (American Type Culture Collection (ATCC), Manassas, VA) were cultured in Dulbecco's minimal essential media (DMEM) containing 10% fetal bovine serum, (Thermofisher, Waltham, MA). Cells were plated at a density of 5,000 cells per well into a 96-well plate and allowed to attach for 24 h in a 37° C. humidified incubator with a 5% CO2 atmosphere. Media was replaced with that containing test agents or vehicle (0.1% dimethylsulphoxide) and cells incubated for a further 48 h. Cell viability was assessed using CellTiter-Glo® (Promega).
(§2) An oleate-bovine serum albumin (BSA) conjugate was prepared by dissolving sodium oleate to 100 mM in methanol. The oleate was diluted to 20 mM with PBS and further diluted 1:1 with 30% fatty acid free albumin and incubated overnight at 37° C. The solution was sterile filtered prior to treating cells. The BSA control was prepared in the same manner, without the fatty acid. […] Non-linear regression analysis was performed using GraphPad PRISM®.

[2] = test system: Mouse melanoma cells (B16F10); test: as above; type: cell-based; conditions: for effect of oleic acid on cytotoxicity: B16F10, oleic acid at 25 μM in the media
Experimental: as §1, §2

[3] = test system: Human subcutaneous pre-adipocytes; test: Lipid accumulation in differentiating primary human adipocytes (AdipoRed); type: cell-based; conditions: Adipocyte, 144 h, six days, read-out: IC50, reduction in lipid accumulation
Experimental: Human subcutaneous pre-adipocytes (Zenbio (RTP, NC, U.S.A.)) were received pre-plated in white-walled 96-well plates. A schematic description of the protocol used for examining the effects of Compound A on lipid accumulation in differentiating human adipocytes is shown in FIG. 9. Upon arrival of cells (Day 1) 150 μL media in the wells was replaced with adipocyte differentiation media (Zenbio (RTP, NC, U.S.A.)). The following day media was replaced as described for Day 1. Media was subsequently replaced as described every two to three days. On Day 6, 150 μL of the adipocyte differentiation media was replaced with vehicle (0.1% DMSO), or the SCD1 inhibitors at the concentrations indicated. […] Cytotoxicity following incubation of adipocytes with Compound A was determined in separate wells, not used for Adipored™ staining, and was measured using CellTiter-Glo® (Promega (Madison, WI)) according to the manufacturer's instructions. Following a 10 min room temperature incubation the luminescence measured as relative light units (RLU) was determined in a luminescent plate reader. For adipocytes treated with concentrations of 1.2-100 nM Compound A for 6 days, cell viability as determined by RLU following CellTiter-Glo® remained greater than 75% of the value obtained with vehicle-treated adipocytes. […]

[4] = test system: mouse 3T3 L1 preadipocytes; test: Viability of mouse 3T3 L1 preadipocytes (Cell Titer Blue); type: cell-based; conditions: 10 μM
Experimental: Viability of mouse 3T3 L1 preadipocytes (ATCC, Mannassas, VA) cultured in a 96-well plate following treatment with 10 μM Compound A and analogs Compounds B, D, E, G and H was assessed using Cell Titer Blue (Promega (Madison, WI)) according to manufacturer's instructions. […] To evaluate how the efficacy of Compound A in reducing lipid accumulation altered with substrate availability, studies were performed in differentiating mouse 3T3-L1 pre-adipocytes using charcoal stripped serum to reduce substrate concentration and also with added exogenous palmitate as the substrate. 3T3-L1 cells were plated at 6000 cells/cm^2 and cultured until confluence at 37° C. in a humidified incubator in 95% air/5% CO2. Two days post-confluence pre-adipocyte differentiation was initiated using adipocyte differentiation medium containing DMEM with high glucose, 10% fetal bovine serum, insulin (1.7 μM), dexamethasone (1 μM), IBMX (0.5 mM), PPARy agonist Rosiglitazone, (1 μM) with penicillin and streptomycin with 10 nM compound A or vehicle (0.1% DMSO). Seventy two hours following the initiation of differentiation, media was replaced with adipocyte maintenance media containing DMEM with high glucose and insulin (1.7 μM) with 10 nM compound A or vehicle (0.1% DMSO) (FIG. 12). Serum composed of 100% FCS or that containing 20, 40, 60, 80 or 100% charcoal stripped serum (cFCS). For experiments where sodium palmitate was added the serum comprised of a 90:10 ratio of FCS:cFCS with 5.0 or 50 μM palmitate/bovine-serum albumin (BSA) complex. Sodium palmitate was conjugated to BSA for use in experiments and was prepared by dissolving to 100 mM in 200 proof ethanol. The palmitate was diluted to 20 mM with D-PBS. The palmitate was then further diluted 1:1 with 30% fatty acid free albumin and incubated overnight at 37° C. The solution was sterile filtered with a 0.22 micron syringe filter prior to treating cells. The BSA control was prepared in the same manner, without the fatty acid. For the studies in which palmitate was added the media additionally contained palmitate/BSA complex at the same concentration as that used during the differentiation stage. Following a further forty-eight hours or ninety-six hours of incubation (Day 6 or Day 8 respectively) the media was removed, wells rinsed with PBS, and 200 μL PBS was added. Five microliters of AdipoRed™ reagent was added to each well, mixed, and allowed to stand at room temperature for 10 mins. Triglyceride was quantitated in a fluorimeter (i3 SpectraMax, Molecular Devices) using ? ex 530 nm and ? em 590 nm to determine relative fluorescent units (RFU). Percent inhibition of triglyceride accumulation in Compound A treated 3T3-L1 adipocytes compared to those treated with vehicle under each condition was calculated by using the formula; % Triglyceride Compound A treated adipocytes=100*(RFU Compound A treated adipocytes/RFU vehicle treated adipocytes).

[5] = Analog solubility in TSAG3 gel vehicle (minus Carbopol); type: physicochemical; conditions: for Supernatant concentration Mean (N = 2-3) mg/g at RT after 4 days equilibration / Visual observation of sample after 4 days: TSAG3 gel vehicle minus 1% w/w Carbopol, 30 mg/g added, 20-23° C.
Experimental: In order to assess the compatibility with the modified TSAG3 gel formulation, several analogs were saturated in the gel components at room temperature (20-23° C.). The method used was as follows: Each analog at the equivalent of 30 mg/g was added to 500 microliters of the gel vehicle (minus the 1% w/w Carbopol as this made the gel too viscous) and allowed to equilibrate using a gently rotating, rotisserie sample holder that was allowed to come to equilibrium over 4 days. The samples were visually observed, filtered and diluted for analysis via HPLC in a concentrations range predetermined to be in a linear range for analyte detection. It is believed that Carbopol makes little difference to the equilibrium solubility at the 1% w/w level but may possibly prevent precipitation of super−saturated solutions of drug initially over 24-48 hours which is a further reason for taking it out to better assess the drug solubility in the remainder of the formulation.

[6] = test system: HSC-1 human squamous carcinoma cells; test: Cytotoxicity in human squamous carcinoma cells (CellTiter-Glo); type: cell-based; conditions: HSC-1, 72 h, 1% FBS, representative experiment, read-out: EC50 (cell viability)
Experimental: The human skin squamous carcinoma line (HSC) (Japanese Collection of Research Bioresources Cell Bank (JCRB)) was cultured in Dulbecco's minimal essential media (DMEM) containing 20% fetal bovine serum (FBS), (Thermofisher, Waltham, MA). Cells were plated at a density of 5,000 cells per well into a 96-well plate and allowed to attach for 24 h in a 37° C. humidified incubator with a 5% CO2 atmosphere. Media was replaced with that containing test agents or vehicle (0.1% dimethylsulphoxide) in 1% FBS and cells incubated for a further 72 h. Cell viability was assessed using CellTiter-Glo® (Promega). Non-linear regression analysis was performed using GraphPad PRISM®.

B16F10 cells = test: Melanin production in B16F10 melanoma cells; type: cell-based, mouse; conditions: 10 nM, 48 h
Experimental: B16F10 cells were plated at 150,000 cells per well into a 6-well plate and allowed to attach for 24 h in a 37° C. humidified incubator with a 5% CO2 atmosphere. Media was replaced with that containing test agents or vehicle (0.1% DMSO) and cells incubated for a further 48 h. Wells were washed once with PBS and cells removed by trypsinization and transferred to eppendorf tubes. Tubes were centrifuged at 1000 g for 10 minutes and the cell pellet resuspended in 0.5 mls PBS. Since compound A and analogs caused a reduction in cell viability the relative cell number per well was determined by taking an aliquot of the cell suspension in PBS and using CellTiter Glo® to determine the relative number of viable cells (Figure XX5). The PBS/cell suspension was centrifuged at 1000 g for 10 mins and the cell pellet resuspended in 1N NaOH/10% DMSO (v/v) and the tubes heated in a dry heating block at 80° C. with occasional vortexing to mix. In parallel a standard curve of melanin was prepared in 1N NaOH/10% DMSO using Sepia melanin (Sigma, St. Louis, MO) and standards also heated at 80° C. for 1 h. Samples and standards were centrifuged at 3000 g for 5 minutes and aliquots of the supernatant transferred to a 96-well plate for determination of melanin using Abs 475 nm. Melanin cellular content was interpolated from a standard curve and corrected based on the relative cell number in the sample.

Structure (SMILES)	EC50 at 48 h [1] [nM]	effect of oleic acid on cytotoxicity [2]	IC50 [3] [nM]	cell viability compared to vehicle treated cells [4]	Supernatant concentration Mean (N = 2-3) mg/g at RT after 4 days equilibration [5] [mg/g]	Visual observation of sample after 4 days [5]	EC50 [6] [nM]	melanin content (B16F10 cells)	reduction of cell viability ([2]; B16F10, 48 h, up to 100 nM)	solubility as % of Compound A solubility ([5]; TSAG3 gel vehicle minus Carbopol)
Cc1ccccc1O[C@H]1CCN(C(=O)COc2ccc(CO)cc2)C1 [Compound H]	46	prevented the cytotoxic effect	56	No loss in cell viability	27.89	Clear solution	–	–	–	–
O=C(COc1ccc(CO)cc1)N1CC[C@H](Oc2ccccc2OC(F)(F)F)C1 [Compound G]	4.3	prevented the cytotoxic effect	24.2	No loss in cell viability	28.78	Clear solution	9.2	increase in melanin	–	–
O=C(COc1ccc(CO)cc1)N1CC[C@H](Oc2ccc(C(F)(F)F)cc2)C1 [Compound E]	–	–	–	No loss in cell viability	23.18	Visible precipitate	–	–	did not reduce the viability	about 77%
O=C(COc1ccc(CO)cc1)N1CC[C@H](Oc2cccc(C(F)(F)F)c2)C1 [Compound D]	–	–	–	No loss in cell viability	28.35	Clear solution	–	–	–	–
O=C(COc1ccc(CO)cc1)N1CC[C@H](Oc2ccccc2)C1 [Compound B]	–	–	–	No loss in cell viability	28.46	Clear solution	–	–	–	–
